{
  "source": "patent US6555692B1",
  "about": "“Preparation and use of bifunctional molecules having DNA sequence binding specificity” (California Institute of Technology, priority 1996, dated 2003)",
  "assay_type_in_all_cases": "binding",
  "key": {"5′-TGCGCA-3′": {"test_system": "5′-TGCGCA-3′", "assay": "DNase I footprint titration, pSES9hp fragment", "text": "The experimental target plasmid pSES9hp was constructed by hybridization of the inserts:\nThe plasmid pSES9hp was linearized with EcoRI and PvuII and then treated with Klenow fragment, deoxyadenosine 5′-[α-^32P]triphosphate and thymidine 5′-[α-^32P]triphosphate for 3′ labeling. Alternatively, pSES9hp was linearized with EcoRI, treated with calf alkaline phosphatase, and then 5′ labeled with T4 polynucleotide kinase and deoxyadenosine 5′- [γ-^32P]triphosphate. The 5′ labeled fragment was then digested with PvuII. The labeled fragment (3′ or 5′) was loaded onto a 5% non-denaturing polyacrylamide gel, and the desired 282 base pair band was visualized by autoradiography and isolated. Chemical sequencing reactions were performed according to published methods. (Maxam, A. M. & Gilbert, W. S. (1980). Sequencing End-Labeled DNA with Base-Specific Chemical Cleavages. Methods Enzymol. 65, 499-560; Iverson, B. L. & Dervan, P. B. (1987). Adenine-specific DNA chemical sequencing reaction. […], 7823-7830.)"}, "5′-TGTCAAAGACA-3′": {"test_system": "5′-TGTCAAAGACA-3′", "assay": "Recognition of 9-11 base pairs (Table 9)", "conditions": "22° C. and pH 7.0", "text": "(§1) Table 9 illustrates recognition of recognition of 9-11 base pairs by ImPyPy-X-ImPyPy-β-Dp."}, "5′-TGTCAAGACA-3′": {"test_system": "5′-TGTCAAGACA-3′", "assay": "Recognition of 9-11 base pairs (Table 9)", "conditions": "22° C. and pH 7.0", "text": "as §1"}, "5′-gcggtTGTCAacccg-3′": {"test_system": "5′-gcggtTGTCAacccg-3′", "assay": "Recognition of 9-11 base pairs (Table 9)", "conditions": "22° C. and pH 7.0", "text": "as §1"}, "5′-TGTCAGACA-3′": {"test_system": "5′-TGTCAGACA-3′", "assay": "Recognition of 9-11 base pairs (Table 9)", "conditions": "22° C. and pH 7.0", "text": "as §1"}},
  "data": [
    {"smiles": "CN(C)CCCNC(=O)CCNC(=O)c1cc(NC(=O)c2nc(NC(=O)c3cc(NC(=O)c4nc(NC(=O)CCCNC(=O)c5cc(NC(=O)c6nc(NC(=O)c7cc(NC(=O)c8nccn8C)cn7C)cn6C)cn5C)cn4C)cn3C)cn2C)cn1C", "note": "[ImPyImPy-γ-ImPyImPy-β-Dp]", "values": [
      {"measurement": "Ka", "setting": "5′-TGCGCA-3′", "result": "4e+07", "unit": "M⁻¹"},
      {"measurement": "specificity", "setting": "5′-TGCGCA-3′", "result": 4, "unit": "fold"}
    ]},
    {"smiles": "CN(C)CCCNC(=O)CCNC(=O)c1cc(NC(=O)c2cc(NC(=O)c3nc(NC(=O)CCCCCCCNC(=O)c4cc(NC(=O)c5cc(NC(=O)c6nccn6C)cn5C)cn4C)cn3C)cn2C)cn1C", "note": "[ImPyPy-C8-ImPyPy-β-Dp]", "values": [
      {"measurement": "5′-TGTCAAAGACA-3′", "setting": "5′-TGTCAAAGACA-3′", "result": "1 × 10^7"},
      {"measurement": "5′-TGTCAAGACA-3′", "setting": "5′-TGTCAAGACA-3′", "result": "3 × 10^7"},
      {"measurement": "5′-gcggtTGTCAacccg-3′", "setting": "5′-gcggtTGTCAacccg-3′", "result": "1 × 10^7"},
      {"measurement": "5′-TGTCAGACA-3′", "setting": "5′-TGTCAGACA-3′", "result": "1 × 10^7"}
    ]},
    {"smiles": "CN(C)CCCNC(=O)CCNC(=O)c1cc(NC(=O)c2cc(NC(=O)c3nc(NC(=O)CCCCCCCCCCNC(=O)c4cc(NC(=O)c5cc(NC(=O)c6nccn6C)cn5C)cn4C)cn3C)cn2C)cn1C", "note": "[ImPyPy-C11-ImPyPy-β-Dp]", "values": [
      {"measurement": "5′-TGTCAAAGACA-3′", "setting": "5′-TGTCAAAGACA-3′", "result": "2 × 10^7"},
      {"measurement": "5′-TGTCAAGACA-3′", "setting": "5′-TGTCAAGACA-3′", "result": "2 × 10^7"},
      {"measurement": "5′-gcggtTGTCAacccg-3′", "setting": "5′-gcggtTGTCAacccg-3′", "result": "1 × 10^7"},
      {"measurement": "5′-TGTCAGACA-3′", "setting": "5′-TGTCAGACA-3′", "result": "5 × 10^6"}
    ]},
    {"smiles": "CN(C)CCCNC(=O)CCNC(=O)c1cc(NC(=O)c2cc(NC(=O)c3nc(NC(=O)CNC(=O)c4cc(NC(=O)c5cc(NC(=O)c6nccn6C)cn5C)cn4C)cn3C)cn2C)cn1C", "note": "[ImPyPy-G-ImPyPy-β-Dp]", "values": [
      {"measurement": "5′-TGTCAAAGACA-3′", "setting": "5′-TGTCAAAGACA-3′", "result": "3 × 10^7"},
      {"measurement": "5′-TGTCAAGACA-3′", "setting": "5′-TGTCAAGACA-3′", "result": "3 × 10^7"},
      {"measurement": "5′-gcggtTGTCAacccg-3′", "setting": "5′-gcggtTGTCAacccg-3′", "result": "3 × 10^7"},
      {"measurement": "5′-TGTCAGACA-3′", "setting": "5′-TGTCAGACA-3′", "result": "1 × 10^8"}
    ]},
    {"smiles": "CN(C)CCCNC(=O)CCNC(=O)c1cc(NC(=O)c2cc(NC(=O)c3nc(NC(=O)CCNC(=O)c4cc(NC(=O)c5cc(NC(=O)c6nccn6C)cn5C)cn4C)cn3C)cn2C)cn1C", "note": "[ImPyPy-β-ImPyPy-β-Dp]", "values": [
      {"measurement": "5′-TGTCAAAGACA-3′", "setting": "5′-TGTCAAAGACA-3′", "result": "1 × 10^9"},
      {"measurement": "5′-TGTCAAGACA-3′", "setting": "5′-TGTCAAGACA-3′", "result": "2 × 10^8"},
      {"measurement": "5′-gcggtTGTCAacccg-3′", "setting": "5′-gcggtTGTCAacccg-3′", "result": "1 × 10^9"},
      {"measurement": "5′-TGTCAGACA-3′", "setting": "5′-TGTCAGACA-3′", "result": "2 × 10^8"}
    ]},
    {"smiles": "CN(C)CCCNC(=O)CCNC(=O)c1cc(NC(=O)c2cc(NC(=O)c3nc(NC(=O)CCNC(=O)c4cc(NC(=O)CCNC(=O)c5cc(NC(=O)c6cc(NC(=O)c7nccn7C)cn6C)cn5C)cn4C)cn3C)cn2C)cn1C", "note": "[ImPyPy-β-Py-β-ImPyPy-β-Dp]", "values": [
      {"measurement": "5′-TGTCAAAGACA-3′", "setting": "5′-TGTCAAAGACA-3′", "result": "1 × 10^9"},
      {"measurement": "5′-TGTCAAGACA-3′", "setting": "5′-TGTCAAGACA-3′", "result": "2 × 10^8"},
      {"measurement": "Ka", "setting": "5′-gcggtTGTCAacccg-3′", "result": "< 1e+08", "unit": "M⁻¹"},
      {"measurement": "5′-TGTCAGACA-3′", "setting": "5′-TGTCAGACA-3′", "result": "3 × 10^8"}
    ]},
    {"smiles": "CN(C)CCCNC(=O)CCNC(=O)c1cc(NC(=O)c2cc(NC(=O)c3cc(NC(=O)CCNC(=O)c4cc(NC(=O)c5cc(NC(=O)c6nccn6C)cn5C)cn4C)cn3C)cn2C)cn1C", "note": "[ImPyPy-β-PyPyPy-β-Dp]", "values": [
      {"measurement": "5′-TGTCAAAGACA-3′", "setting": "5′-TGTCAAAGACA-3′", "result": "5 × 10^7"},
      {"measurement": "5′-TGTCAAGACA-3′", "setting": "5′-TGTCAAGACA-3′", "result": "5 × 10^7"},
      {"measurement": "5′-gcggtTGTCAacccg-3′", "setting": "5′-gcggtTGTCAacccg-3′", "result": "3 × 10^7"},
      {"measurement": "5′-TGTCAGACA-3′", "setting": "5′-TGTCAGACA-3′", "result": "2 × 10^8"}
    ]},
    {"smiles": "CN(C)CCCNC(=O)CCNC(=O)c1cc(NC(=O)c2cc(NC(=O)c3nc(NC(=O)CCNC(=O)CCNC(=O)c4cc(NC(=O)c5cc(NC(=O)c6nccn6C)cn5C)cn4C)cn3C)cn2C)cn1C", "note": "[ImPyPy-β-β-ImPyPy-β-Dp]", "values": [
      {"measurement": "5′-TGTCAAAGACA-3′", "setting": "5′-TGTCAAAGACA-3′", "result": "1 × 10^7"},
      {"measurement": "5′-TGTCAAGACA-3′", "setting": "5′-TGTCAAGACA-3′", "result": "5 × 10^7"},
      {"measurement": "5′-gcggtTGTCAacccg-3′", "setting": "5′-gcggtTGTCAacccg-3′", "result": "2 × 10^7"},
      {"measurement": "5′-TGTCAGACA-3′", "setting": "5′-TGTCAGACA-3′", "result": "1 × 10^7"}
    ]},
    {"smiles": "CN(C)CCCNC(=O)CCNC(=O)c1cc(NC(=O)c2cc(NC(=O)c3nc(NC(=O)CCNC(=O)CCNC(=O)CCNC(=O)c4cc(NC(=O)c5cc(NC(=O)c6nccn6C)cn5C)cn4C)cn3C)cn2C)cn1C", "note": "[ImPyPy-β-β-β-ImPyPy-β-Dp]", "values": [
      {"measurement": "5′-TGTCAAAGACA-3′", "setting": "5′-TGTCAAAGACA-3′", "result": "7 × 10^7"},
      {"measurement": "5′-TGTCAAGACA-3′", "setting": "5′-TGTCAAGACA-3′", "result": "1 × 10^7"},
      {"measurement": "5′-gcggtTGTCAacccg-3′", "setting": "5′-gcggtTGTCAacccg-3′", "result": "1 × 10^7"},
      {"measurement": "5′-TGTCAGACA-3′", "setting": "5′-TGTCAGACA-3′", "result": "1 × 10^7"}
    ]}
  ]
}
